Experimental data reported in patent US12414968B2, “Compositions comprising bacterially derived minicells and methods of using the same” (EnGeneIC Molecular Delivery Pty Ltd, priority 2018, dated 2025).
Read-outs that look alike come from different tables or passages of the source.

Legend:
[1] = tested on: JAWSII cells; assay: αGC-CD1d surface presentation on JAWSII cells (flow cytometry); format: cell-based, mouse; conditions: 8h to 48h post-treatment; vs minicells alone and untreated
Method: Treatment of JAWSII spheroids with EDVαGC: JAWSII cells were treated with 1000 ng/ml αGC (positive control); empty minicells and minicellsαGC compared to untreated cells and collected at 8h, 16h, 24h and 48h post-treatment (FIG. 46A-46D).
Initial treatment preparation: 6 hanging drop suspension samples were used for each treatment group per time point. 5×10^4 JAWSII cells and 5×10^8 minicells ([…]) were used for each treatment sample and cultured in JAWSII cell culture media in a total volume of 50 μl. Extra untreated samples were prepared for isotype controls. The appropriate amount of minicells were pelleted by centrifugation at 12,000 g for 7 min and the supernatant was carefully removed by pipetting. Appropriate amount of live JAWS cells (based on the cell count from the previous section) were added to the pelleted minicells. The minicells were then dissociated into single-minicells-cell suspensions by gentle pipetting. The final volume of each sample was then made up by the addition of sterile culture media. […]
Staining the treated JAWSII cells with anti-alpha GalCer:mCD1d complex monoclonal antibody: The entire content of each hanging drop well was carefully collected using a P200 pipette and transferred into an Eppendorf tube. […] The samples were then analyzed using a Gallios flow cytometer.

[2] = tested on: human colorectal cancer cell lines Caco-2 and HCT116; assay: MTS cell proliferation assay, Caco-2 and HCT116; format: cell-based; conditions: 72 hrs
[3] = tested on: Glioblastoma cell line U87-MG; assay: MTS cell proliferation assay, U87-MG; format: cell-based; conditions: 72 hrs
[4] = tested on: RAW264.7 cells co-cultured with treated 4T1 and CT26Ep12.1 cells; assay: RAW264.7 / treated tumor cell co-culture; format: cell-based, mouse; conditions: then co-culture
Method: Macrophage and DC/Tumor Cell Co-cultures: CT26Ep12.1 and 4T1 cells were harvested with Versene (Gibco) and cells were collected in 1 mL Eppendorf tubes. Cells were resuspended in 1 mL DMEM (Sigma) supplemented with 10% FBS (Bovogen) containing: Ep-EDV (1000:1 and 5000:1—EDV:cells); Ep-EDV-682 (500:1 and 1000:1—EDV:cells); Ep-EDV-Dox (10,000:1—EDV:cell), 100 pmol PNU-159682, 5 μM Doxorubicin, or media alone. […] Cells were then washed thoroughly with PBS to remove any non-adherent EDV or excess drug. Treated tumor cells were cultured overnight with either RAW264.7 or BMDC at a 1:1 ratio of tumor cells:RAW264.7/BMDC/JAWS II. Supernatants were collected for ELISA analysis. RAW264.7/tumor cell co-cultures were collected using a cell scraper and samples were stained with DAPI (Sigma), anti-CD45 Brilliant Violet 510 (BioLegend), anti-CD86 APC-Cy7, and anti-CD206 AF488 and assessed by flow cytometry. JAWS II/tumor cell and BMDC/tumor cell co-cultures were collected with versene and stained with DAPI (Sigma), CD11b AF488 (Abcam), CD11c PE (Molecular Probes), anti-CD45 Brilliant Violet 510 or PECy5 (BioLegend), anti-CD86 APC-Cy7, MHC Class II PECy5 (Thermo Fisher), MHC Class II Brilliant Violet 421 (BioLegend), 7-AAD (BioLegend), and/or CD80 PE (Thermo Fisher) and assessed by flow cytometry. […] RNA concentration was determined on an Eppendorf biophotometer plus. […]

[5] = tested on: bone marrow derived dendritic cells (BMDC) with CT26Ep12.1 cells; assay: BMDC / treated CT26Ep12.1 co-culture; format: cell-based, mouse
Method: (§1) The effect of tumor cell death in response to Ep-EDV, Ep-EDV-682, and 682 treatment on dendritic cell maturation was also examined (FIGS. 27E-27I). Bone marrow derived dendritic cells (BMDC) were co-incubated with treated tumor cells (4T1 and CT26Ep12.1) for 48 h, followed by assessment of the production of the type 1 interferons IFNα and IFNβ. Increases in type 1 interferon production by dendritic cells is well established as a mechanism of dendritic cell maturation and enhanced antigen presentation as well as being vital for their interaction with other immune cell subsets including NK cells and T-cells (Fitzgerald-Bocarsly and Feng, 2007; Simmons et al., 2012).
(§2) Bone Marrow Derived DCs (BMDC): Bone marrow was isolated from the femurs and tibias of Balb/c mice. […]
(§3) Macrophage and DC/Tumor Cell Co-cultures: CT26Ep12.1 and 4T1 cells were harvested with Versene (Gibco) and cells were collected in 1 mL Eppendorf tubes. […] RAW264.7/tumor cell co-cultures were collected using a cell scraper and samples were stained with DAPI (Sigma), anti-CD45 Brilliant Violet 510 (BioLegend), anti-CD86 APC-Cy7, and anti-CD206 AF488 and assessed by flow cytometry. […] RNA concentration was determined on an Eppendorf biophotometer plus. […] Data was exported to excel and the relative quantitation was calculated from the ΔΔCt.

[6] = tested on: MiaPaca-2 cells; assay: MTS cell proliferation assay, MiaPaca-2; format: cell-based, human; conditions: 72 hrs
[7] = tested on: RAW264.7 cells; assay: RAW264.7 cells incubated directly with EDVs; format: cell-based, mouse; conditions: direct incubation
From the text: Results: M1 macrophage polarization and dendritic cell maturation in response to EDV Treatment: Due to the fact that the EDV is derived from Salmonella Typhimurium bacteria, the outer EDV membrane contains a substantial lipopolysaccharide (LPS) content (MacDiarmid et al., 2007b). The interaction of high doses of LPS with macrophages is well known to result in macrophage activation and M1 polarization. To determine if the EDV was capable of eliciting a similar phenotypic response, RAW264.7 cells were incubated with Ep-EDV-682 and Ep-EDV and examined for changes in macrophage phenotype and cytokine production. Expression of the co-stimulatory CD86 expression is known to be a phenotypic indicator of macrophage polarization as well as a hallmark of the antitumor M1 tumor associated macrophages (TAMs) (Dong et al., 2016).
Treatment of RAW264.7 cells with EDVs: RAW264.7 cells were seeded in 6-well plates at 3×10^5 cells per well and incubated overnight. […] Cells were harvested 6h and 24h post treatment using a cell scraper and samples were stained with DAPI (Sigma), anti-CD45 Brilliant Violet 510 (BioLegend), anti-CD86 APC-Cy7 (BioLegend), and anti-CD206 AF488 (R&D Systems) and assessed by flow cytometry.

[8] = tested on: patient derived pancreatic ductal adenocarcinoma cells (head and tail); assay: Drug sensitivity of patient derived PDAC cells; format: cell-based, human
Method: PDAC cells obtained from resected tumor tissue from both the head and tail of the pancreas were examined for drug sensitivity.
The dosed was administered over 20 min via a 20 ml niki pump and premedications were given prior to dosing as before (van Zandwijk et al., 2017). Serum biochemistry, haematology and cytokine expression was evaluated pre and 3 hours post each dose. CA19-9 and C-reactive protein levels were monitored at least bi-weekly. Peripheral Blood mononuclear cells (PBMCs) were examined by flow cytometry prior to dosing and at the end of the cycle for changes in anti-tumour immune cell numbers. Tumour tissue was obtained from the original surgical resection and PDAC cells were cultured and tested for drug sensitivity and surface receptors expression.

[9] = tested on: MiaPaca-2 GemR cells; assay: MTS cell proliferation assay, MiaPaca-2 GemR; format: cell-based, human; conditions: 72 hrs
[10] = tested on: drug-resistant cancer cells; conditions: Quintieri et al., 2005; cited from earlier work
[11] = tested on: bone marrow derived dendritic cells (BMDC) with 4T1 cells; assay: BMDC / treated 4T1 co-culture; format: cell-based, mouse
Method: as §1, §2, §3

[12] = tested on: human breast cancer cell line MDA-MB-468; assay: MTS cell proliferation assay, MDA-MB-468; format: cell-based; conditions: 72 hrs
[13] = tested on: human lung cancer cell line A549; assay: MTS cell proliferation assay, A549; format: cell-based; conditions: 72 hrs
[14] = tested on: Adreno-cortical cancer cell lines ACC01 and ACC07; assay: MTS cell proliferation assay, ACC01 and ACC07; conditions: 72 hrs, lines derived from Stage IV patients
Method: All cells were incubated for a further 72 hrs followed by the colorimetric MTS cell proliferation assay (Cory et al., Cancer Commun., 3(7): 207-12 (1991)) using the CellTiter 96 AQueous One Solution Cell Proliferation Assay (Promega Corp., Madison, Wis., USA), according to the manufacturer's instructions. The colorimetric measurements were read at 490 nm.

SMILES	anti-GalCer:mCD1d staining (αGC surface presentation) [1]	inhibition of proliferation / resistance of the cell lines [2]	inhibition of proliferation / resistance of the cell line [3]	CD86 expression on RAW264.7 cells [4]	production of TNF-α and IL-6 (Th1 cytokines) [4]	type 1 interferon mRNA production [5]	inhibition of proliferation / resistance of the cells [6]	CD86 expression [7]	drug sensitivity [8]	IC50 ([8]; head and tail PDAC cells)	drug sensitivity ([8]; listed as 682)	inhibition of proliferation / resistance of the cells [9]	IC50s for even drug-resistant cancer cells [10]	type 1 interferon mRNA production [11]	inhibition of proliferation / resistance of the cell line [12]	cytotoxicity [13]	cytotoxic effect / resistance of the cell lines [14]
CCCCCCCCCCCCCCCCCCCCCCCCCC(=O)N[C@@H](CO[C@H]1O[C@H](CO)[C@H](O)[C@H](O)[C@H]1O)[C@H](O)[C@H](O)CCCCCCCCCCCCCC [free α-GC, α-galactosylceramide]	clear shift	–	–	–	–	–	–	–	–	–	–	–	–	–	–	–	–
COc1cccc2c1C(=O)c1c(O)c3c(c(O)c1C2=O)C[C@@](O)(C(=O)CO)C[C@@H]3OC1CC2C(OC3C(OC)OCCN23)C(C)O1 (stereo partly drawn) [PNU-159682, 3′-deamino-3″,4′-anhydro-[2″(S)-methoxy-3″(R)-oxy-4″-morpholinyl] doxorubicin]	–	inhibited proliferation	could inhibit proliferation	unable to produce any significant change	no increase	unable to elicit increases	could inhibit proliferation	did not induce the same response	sensitive	pM range	extreme sensitivity	could inhibit proliferation	pM range	unable to elicit increases	inhibited proliferation	greater cytotoxicity	potent cytotoxic effects
